# Laboratory results from US9884865B2, “Azaspiro[4.5] decane derivatives and use thereof” (Purdue Pharma L.P., priority 2013, dated 2018).
# Target: T1, human Nav1.7 (Homo sapiens (Human), UniProt Q15858)
# Test: FLIPR sodium dye assay (CoroNa Green AM Na+ dye, primary fluorescence assay)
# Format: cell-based
# Details: recombinant human Nav1.7 in HEK293
# T1 sequence (Q15858 other isoform, or with tags, fused parts or gaps): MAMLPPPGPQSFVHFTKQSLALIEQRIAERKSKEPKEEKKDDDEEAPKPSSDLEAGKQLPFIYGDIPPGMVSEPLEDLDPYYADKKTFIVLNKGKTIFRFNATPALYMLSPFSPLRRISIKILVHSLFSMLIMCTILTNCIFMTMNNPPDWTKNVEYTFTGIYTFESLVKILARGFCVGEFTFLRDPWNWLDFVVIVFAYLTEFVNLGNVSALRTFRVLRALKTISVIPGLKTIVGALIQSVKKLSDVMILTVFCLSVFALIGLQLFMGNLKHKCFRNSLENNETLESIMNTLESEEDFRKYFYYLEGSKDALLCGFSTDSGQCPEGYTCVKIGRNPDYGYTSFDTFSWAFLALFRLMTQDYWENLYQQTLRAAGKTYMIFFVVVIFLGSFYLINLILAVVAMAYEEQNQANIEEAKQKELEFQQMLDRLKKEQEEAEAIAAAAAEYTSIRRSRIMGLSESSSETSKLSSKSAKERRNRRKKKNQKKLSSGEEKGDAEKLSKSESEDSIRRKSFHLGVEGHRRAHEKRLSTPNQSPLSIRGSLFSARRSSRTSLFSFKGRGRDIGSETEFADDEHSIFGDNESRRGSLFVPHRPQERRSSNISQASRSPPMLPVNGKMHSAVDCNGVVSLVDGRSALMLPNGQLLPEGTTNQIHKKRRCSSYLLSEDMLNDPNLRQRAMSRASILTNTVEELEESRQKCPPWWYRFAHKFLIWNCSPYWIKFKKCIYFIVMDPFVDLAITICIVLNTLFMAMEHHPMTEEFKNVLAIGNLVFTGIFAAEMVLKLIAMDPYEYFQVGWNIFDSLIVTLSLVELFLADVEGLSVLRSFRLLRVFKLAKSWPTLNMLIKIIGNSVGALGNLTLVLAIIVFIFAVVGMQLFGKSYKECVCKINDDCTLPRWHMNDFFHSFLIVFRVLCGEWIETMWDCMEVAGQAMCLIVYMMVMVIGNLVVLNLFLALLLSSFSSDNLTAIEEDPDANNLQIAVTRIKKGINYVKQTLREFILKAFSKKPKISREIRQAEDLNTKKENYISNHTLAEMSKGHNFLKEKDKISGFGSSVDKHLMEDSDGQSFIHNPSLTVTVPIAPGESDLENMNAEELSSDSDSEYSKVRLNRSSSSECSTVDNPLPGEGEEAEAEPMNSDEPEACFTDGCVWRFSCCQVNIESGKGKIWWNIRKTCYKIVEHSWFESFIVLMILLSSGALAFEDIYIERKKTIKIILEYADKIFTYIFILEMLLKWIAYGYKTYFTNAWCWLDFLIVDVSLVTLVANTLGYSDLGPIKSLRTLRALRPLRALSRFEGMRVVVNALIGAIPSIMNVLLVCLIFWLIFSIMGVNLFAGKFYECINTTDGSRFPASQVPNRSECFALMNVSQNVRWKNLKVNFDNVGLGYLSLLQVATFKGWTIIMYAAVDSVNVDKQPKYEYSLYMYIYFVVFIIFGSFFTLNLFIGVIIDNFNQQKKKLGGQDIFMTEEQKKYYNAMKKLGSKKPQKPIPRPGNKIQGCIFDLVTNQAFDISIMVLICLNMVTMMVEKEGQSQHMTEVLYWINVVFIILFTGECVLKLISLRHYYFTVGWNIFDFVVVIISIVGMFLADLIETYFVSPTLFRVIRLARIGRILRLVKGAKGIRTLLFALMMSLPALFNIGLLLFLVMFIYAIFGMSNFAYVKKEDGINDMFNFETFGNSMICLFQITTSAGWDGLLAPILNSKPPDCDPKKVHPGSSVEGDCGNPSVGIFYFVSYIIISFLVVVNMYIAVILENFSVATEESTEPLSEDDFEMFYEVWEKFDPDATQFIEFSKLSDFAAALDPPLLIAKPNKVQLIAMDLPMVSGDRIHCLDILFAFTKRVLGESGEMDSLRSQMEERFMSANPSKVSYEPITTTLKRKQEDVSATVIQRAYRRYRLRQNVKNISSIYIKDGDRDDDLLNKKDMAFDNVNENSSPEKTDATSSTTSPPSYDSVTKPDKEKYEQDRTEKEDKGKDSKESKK
row,Compound,IC50 [µM]
1,"NC(=O)c1cc(N[C@H]2CCNC2=O)nc(N2CCC3(CC2)OCc2ccccc23)n1 [Compound 8, (S)-6-((2-oxopyrrolidin-3-yl)amino)-2-(3H-spiro[isobenzofuran-1,4′-piperidin]-1′-yl)pyrimidine-4-carboxamide]",3.92 ± 0.466
2,"NC(=O)c1cc(N[C@H]2CCNC2=O)nc(N2CCC3(C=Cc4ccccc43)CC2)n1 [Compound 9, (S)-6-((2-oxopyrrolidin-3-yl)amino)-2-(spiro[indene-1,4′-piperidin]-1′-yl)pyrimidine-4-carboxamide]",1.3 ± 0.124
3,"NC(=O)c1cc(N[C@H]2CCNC2=O)nc(N2CCC3(CC2)OC(=O)c2ccccc23)n1 [Compound 10, (S)-2-(3-oxo-3H-spiro [isobenzofuran-1,4′-piperidin]-1′-yl)-6-((2-oxopyrrolidin-3-yl)amino)pyrimidine-4-carboxamide]",3.86 ± 0.39
4,"NC(=O)c1cc(N[C@H]2CCNC2=O)nc(N2CCC3(CC2)C(=O)NCN3c2ccccc2)n1 [Compound 11, (S)-2-(4-oxo-1-phenyl-1,3,8-triazaspiro[4.5]decan-8-yl)-6-((2-oxopyrrolidin-3-yl)amino)pyrimidine-4-carboxamide]",> 20

# Target: T1, human Nav1.7
# Test: FLIPR membrane potential dye assay (alternative fluorescence assay)
# Format: cell-based
# Details: not given
row,Compound,IC50 [nM]
1,"O=C1NC(=O)C2(CCN(c3ccc(Oc4ccc(F)cc4)cc3)CC2)N1 [Compound 12, 8-(4-(4-Fluorophenoxy)phenyl)-1,3,8-triazaspiro[4.5]decane-2,4-dione]",> 20000
2,"O=C1NC(=O)C2(CCN(c3ccc(Oc4ccc(F)cc4)cn3)CC2)N1 [Compound 16, 8-(5-(4-Fluorophenoxy)pyridin-2-yl)-1,3,8-triazaspiro[4.5]decane-2,4-dione]",4480 ± 1040
3,"O=C1NC(=O)C2(CCN(c3ccc(Oc4ccc(C(F)(F)F)cc4)cc3)CC2)N1 [Compound 19, 8-(4-(4-(trifluoromethyl)phenoxy)phenyl)-1,3,8-triazaspiro[4.5]decane-2,4-dione]",> 20000
4,"O=C1NC(=O)C2(CCN(c3ncccc3Oc3ccc(F)cc3)CC2)N1 [Compound 20, 8-(3-(4-Fluorophenoxy)pyridin-2-yl)-1,3,8-triazaspiro[4.5]decane-2,4-dione]",> 20000
5,"O=C1NC(=O)C2(CCN(c3cc(-c4cccc(OC(F)(F)F)c4)ccn3)CC2)N1 [Compound 21, 8-(4-(3-(Trifluoromethoxy)phenyl)pyridin-2-yl)-1,3,8-triazaspiro[4.5]decane-2,4-dione]",1980 ± 309

# Results, then the compound that gave them:
row,IC50 [nM],Compound
1,1540 ± 223,"O=C1NC(=O)C2(CCN(c3ccc(Oc4cccc(F)c4)cc3)CC2)N1 [Compound 13, 8-(4-(3-Fluorophenoxy)phenyl)-1,3,8-triazaspiro[4.5]decane-2,4-dione]"
2,1270 ± 380,"O=C1NC(=O)C2(CCN(c3ccc(Oc4cccc(C(F)(F)F)c4)cc3)CC2)N1 [Compound 14, 8-(4-(3-(Trifluoromethyl)phenoxy)phenyl)-1,3,8-triazaspiro[4.5]decane-2,4-dione]"
3,872 ± 117,"O=C1NC(=O)C2(CCN(c3cc(-c4ccc(OC(F)(F)F)cc4)ccn3)CC2)N1 [Compound 15, 8-(4-(4-(trifluoromethoxy)phenyl)pyridin-2-yl)-1,3,8-triazaspiro[4.5]decane-2,4-dione]"
4,1730 ± 649,"O=C1NC(=O)C2(CCN(c3ccc(Oc4ccc(C(F)(F)F)cc4)cn3)CC2)N1 [Compound 17, 8-(5-(4-(trifluoromethyl)phenoxy)pyridin-2-yl)-1,3,8-triazaspiro[4.5]decane-2,4-dione]"
5,1440 ± 492,"O=C1NC(=O)C2(CCN(c3ccc(Oc4cccc(C(F)(F)F)c4)cn3)CC2)N1 [Compound 18, 8-(5-(3-(trifluoromethyl)phenoxy)-pyridin-2-yl)-1,3,8-triazaspiro[4.5]decane-2,4-dione]"
